Results taken from US20260191815A1, “THIOACRYLAMIDE DERIVATIVES FOR USE IN THE PREVENTION OR TREATMENT OF LIVER FIBROSIS” (CMR CUREDIAB METABOLIC RESEARCH GMBH, priority 2022, published 2026).
“Also recorded” adds a separate entry of the source.

Assays:
[1] = test system: pro-collagen 1a1 in 3D PHH:NPC spheroid supernatants; experiment: Pro-collagen 1a1 ELISA in supernatants of 3D PHH:NPC NASH spheroids; assay type: cell-based, human; conditions: NASH medium
Description: (§1) Experiments were conducted using HepaPredict's (HepaPredict AB, Sweden) 3D primary human hepatocyte (PHH) spheroid NASH model (e.g. as published in Bell et al. Sci Rep. 2016 May 4; 6:25187. doi: 10.1038/srep25187).
(§2) Cryopreserved primary human hepatocytes were obtained from BioIVT (USA) and nonparenchymal cells (NPC) from LifeNetHealth (USA). After thawing, PHH-NPC cocultures were seeded in a multi-well 96-well Elplasia plate (Corning) in William's E medium containing 11 mM glucose, 10 μg/mL (control) or 10 mg/mL insulin (NASH), 100 nM dexamethasone, 5.5 mg/L transferrin, 6.7 μg/L selenite, 2 mM L-glutamine, 1 U/mL penicillin, 0.1 mg/mL streptomycin, and 10% fetal bovine serum (FBS). PHH-NPC cocultures were seeded in ratio of 6:1 PHH:NPC with a total of 40,000 PHH per well. When spheroids were formed, FBS was phased out and spheroids were maintained in either the same media to provide the negative control (“Ctrl”), or with addition of albumin-conjugated free fatty acid (FFA), comprised of 240 μM palmitic acid and 240 μM oleic acid (NASH medium) to provide the positive control (“NASH”). Compound exposure was conducted in NASH medium with medium exchanges every 48-72 hours.
After spheroid formation, cells were exposed to up to five different concentrations of the candidate molecules HK1 or HK3 (0.1 μM, 0.3 μM, 1 μM, 3 μM, and 10 μM) with or without FFA in the culture medium. All compound stocks and dilutions were prepared in DMSO, aliquoted and stored protected from light at −20° C. Fresh dosing solutions were prepared from these aliquots on each dosing day. All endpoints were evaluated after 14 days of exposure. […]
Supernatant from each well was collected and stored at […]. On the day of the measurement, samples were thawed and fibrosis was evaluated using the Human Pro-collagen 1 alpha 1 DuoSet ELISA (R&D Systems) where pro-collagen 1a1 levels were measured in culture supernatants. […]

[2] = test system: IL-6 secretion in 3D PHH:NPC spheroids; experiment: IL-6 secretion (Luminex) by 3D PHH:NPC NASH spheroids; assay type: cell-based, human; conditions: for IL-6 levels compared to NASH: NASH medium
Description: as §1, §2
After spheroid formation, cells were exposed to up to five different concentrations of the candidate molecules HK1 or HK3 (0.1 μM, 0.3 μM, 1 μM, 3 μM, and 10 μM) with or without FFA in the culture medium. All compound stocks and dilutions were prepared in DMSO, aliquoted and stored protected from light at −20° C. Fresh dosing solutions were prepared from these aliquots on each dosing day. All endpoints were evaluated after 14 days of exposure.
For statistical comparisons, normalized values for a given condition were compared to either the corresponding vehicle (DMSO) controls or the respective FFA (NASH) controls at the same time point using heteroscedastic unpaired two-tailed t-tests.
Secreted cytokines (IL-6 and IL-8) were measured in culture supernatants using a customized Magnetic Luminex Performance Assay (Human Cytokine Panel A, R&D Systems). The multiplexed assay was performed following the manufacturer's instructions. Standard curves were generated by resuspending the human recombinant cytokines mixture at concentrations ranging from […] with 8 points at 1:3 series dilution for the customized selection of […], IL-6 and IL-8/CXCL8. […] The fluorescence intensity was measured using a Bio-Plex 200 system (Bio-Rad), the median fluorescence intensity of each analyte was analyzed with the Bio-Plex Manage software (version 6.2) using a 5-parameter regression algorithm. […]
To assess the effect of the two candidate compounds HK1 and HK3 on hepatic inflammation, we measured levels of the pro-inflammatory cytokines IL-6 and IL-8.

For `Cc1cc(NC(=S)/C(C#N)=C(\O)C2CC2)ccc1[N+](=O)[O-]` [HK3, 2-Cyano-3-cyclopropyl-3-hydroxy-N-(3-methyl-4-nitro-phenyl)-thioacrylamide], the “pro-collagen 1a1 levels compared to NASH” value ([1]; 1 μM) was 82%, the “pro-collagen 1a1 levels compared to NASH” value ([1]; 3 μM) was 73% and the “pro-collagen 1a1 levels compared to NASH” value ([1]; 10 μM) was 64%. The “IL-6 levels compared to NASH” value ([2]; 1 μM) was 73%, the “IL-6 levels compared to NASH” value ([2]; 3 μM) was 55% and the “IL-6 levels compared to NASH” value ([2]; 10 μM) was 72%. For the same molecule, the “IL-6 secretion, effect in words” value ([2]; NASH spheroids, 1-10 μM) was “slight decrease; also recorded: stronger decrease”.
